Experimental findings from PubChem BioAssay (NCI) are described below.

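96-well plates; 48 h exposure; 5 concentrations. Endpoints by linear interpolation between flanking doses. Not reached: highest tested concentration assigned. At the GI50, growth is halved. TGI marks complete inhibition of growth.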 *1 amine or outer side, *2 acyl side, *3 side chain or, on linkers, in order; H or OH if unused. Where a SMILES comes first, the peptide text is derived from it. CO = O=C([*:1])[*:2]

Test systems include NCI-H522 lung; OVCAR-5 ovarian; HCC-2998 colon; RPMI-8226 leukemia; NCI-H226 lung; OVCAR-4 ovarian; HOP-62 NSCLC; EKVX NSCLC; MALME-3M melanoma; HOP-92 NSCLC.
What all share (assay): DTP human tumour cell line panel, 48 h

In general, GI50 refers to the concentration giving 50% growth inhibition. Broadly, the TGI is the concentration giving total growth inhibition. A high value points to less potent growth arrest. Consider `CC1=C([Se]CC(OC(=O)[C@@H](CSSC(C)(C)C)NC(=O)C(C)(C)C)C(=O)NCCCCCC(=O)OCc2ccccc2)C(=O)c2ccccc2C1=O` (some centres undefined), for which the GI50 with NCI-H522 lung was 1.69 µM; in the assay on OVCAR-5 ovarian, 2.59 µM; in the assay on HCC-2998 colon it was 2.2 µM; with RPMI-8226 leukemia, 2.33 µM; in the assay on NCI-H226 lung, 2.36 µM; in the assay on OVCAR-4 ovarian, 1.58 µM. In addition, the GI50 is 1.01 µM in the assay on HOP-62 NSCLC, 2.24 µM with EKVX NSCLC and 2.49 µM with MALME-3M melanoma. The TGI turned out to be 3.21 µM in the assay on NCI-H522 lung; 5.44 µM in the assay on OVCAR-5 ovarian; 4 µM in the assay on HCC-2998 colon; 6.74 µM with RPMI-8226 leukemia; 4.63 µM in the assay with NCI-H226 lung; 2.97 µM in the assay on OVCAR-4 ovarian. Further, the TGI with HOP-62 NSCLC stood at 3.03 µM; with EKVX NSCLC, 5.41 µM; with MALME-3M melanoma it was 5.15 µM.

As for `O=C(CC1(O)C(=O)Nc2ccccc21)c1ccc(O)cc1O` (centres undefined), the TGI in the assay with NCI-H522 lung, in the assay with OVCAR-5 ovarian, in the assay with RPMI-8226 leukemia, in the assay with NCI-H226 lung, in the assay with OVCAR-4 ovarian and with HOP-92 NSCLC was more than 100 µM throughout. The TGI with HOP-62 NSCLC, in the assay on EKVX NSCLC and in the assay on MALME-3M melanoma was more than 100 µM each time.

As for `CCN(CC)CCCC(C)N/C(c1cccc(OC)c1)=c1\c(=O)[nH]n(-c2c3ccccc3nc3ccccc23)c(=O)\c1=C(/NC(C)CCCN(CC)CC)c1cccc(OC)c1` (centres undefined), the GI50 is 1.55 µM with NCI-H522 lung; 1.79 µM with OVCAR-5 ovarian; 1.44 µM with HCC-2998 colon; 2.08 µM in the assay with RPMI-8226 leukemia; 1.16 µM in the assay on NCI-H226 lung; 1.22 µM with OVCAR-4 ovarian. Moreover, the GI50 in the assay with HOP-62 NSCLC is 1.47 µM; in the assay with MALME-3M melanoma, 1.9 µM. In addition, the TGI came to 3.21 µM with NCI-H522 lung; 5.21 µM in the assay on OVCAR-5 ovarian; 2.92 µM in the assay on HCC-2998 colon; 5.06 µM in the assay with RPMI-8226 leukemia; 3.63 µM in the assay with NCI-H226 lung; 4.11 µM in the assay with OVCAR-4 ovarian. The figures for the TGI in the assay with HOP-62 NSCLC and in the assay with MALME-3M melanoma were 5.03 µM and 3.54 µM, respectively.

As for `COc1ccc(C2c3cc4c(cc3OC(O)(CO)C2C(=O)O)OCO4)c(OC)c1OC` (centres undefined) (tested in a mixture with another compound), the TGI with RPMI-8226 leukemia, in the assay with OVCAR-4 ovarian, with HOP-92 NSCLC, with HOP-62 NSCLC, with EKVX NSCLC and with MALME-3M melanoma was more than 100 µM in each case.

`O=C1OC2(c3ccccc31)c1cc(I)c(O)c(I)c1Oc1c2cc(I)c(O)c1I`: the TGI was 78.5 µM in the assay on NCI-H522 lung; more than 100 µM with OVCAR-5 ovarian; more than 100 µM in the assay on RPMI-8226 leukemia; more than 100 µM in the assay with NCI-H226 lung; more than 100 µM in the assay on OVCAR-4 ovarian; more than 100 µM in the assay on HOP-92 NSCLC. Moreover, the TGI with HOP-62 NSCLC, with EKVX NSCLC and with MALME-3M melanoma was more than 100 µM in each case.

Turning to `CC(=O)O[C@H]1C(=O)[C@@]2(C)[C@H]([C@H](OC(=O)c3ccccc3)[C@]3(O)C[C@H](OC(=O)[C@H](OC(=O)CCC(=O)OC4CCC(S/N=C(N)/N=C(\N)N(C)C)CC4)[C@@H](NC(=O)c4ccccc4)c4ccccc4)C(C)=C1C3(C)C)[C@]1(OC(C)=O)CO[C@@H]1C[C@@H]2O` (some centres undefined), the GI50 in the assay with NCI-H522 lung is 0.00553 µM; with OVCAR-5 ovarian it was 0.0272 µM; in the assay with HCC-2998 colon, 0.0147 µM; with RPMI-8226 leukemia, 0.00605 µM; in the assay on NCI-H226 lung it was 23.4 µM; in the assay on OVCAR-4 ovarian, 0.0444 µM. Moreover, the GI50 in the assay on HOP-62 NSCLC is 0.0133 µM; in the assay on EKVX NSCLC, 0.0269 µM. The TGI with NCI-H522 lung is 0.0373 µM; in the assay on OVCAR-5 ovarian, more than 50 µM; in the assay on HCC-2998 colon, 0.727 µM; with RPMI-8226 leukemia, more than 43.5 µM; with NCI-H226 lung, more than 50 µM; with OVCAR-4 ovarian, more than 50 µM. In addition, the TGI in the assay on HOP-62 NSCLC and in the assay on EKVX NSCLC was more than 50 µM in each case.

On to `O=C(O/N=C1/CCC/C1=C\c1ccccc1)c1ccccc1`, for which the TGI in the assay with NCI-H522 lung, in the assay with OVCAR-5 ovarian, in the assay with RPMI-8226 leukemia, in the assay on NCI-H226 lung, in the assay with OVCAR-4 ovarian and in the assay with HOP-92 NSCLC was more than 100 µM in each case. For the same molecule, the TGI in the assay with HOP-62 NSCLC, with EKVX NSCLC and with MALME-3M melanoma was more than 100 µM throughout.

For `CC(C)C(NC(=O)C(CCCN=C(N)N)NC(=O)NC(Cc1ccccc1)C(=O)O)C(=O)NC(C=O)CCCN=C(N)N` (stereo not drawn) ({Phe-CO}-Arg-Val-Arg-aldehyde; configuration not given here), the GI50 was more than 5 µM with NCI-H522 lung; more than 5 µM in the assay with OVCAR-5 ovarian; 0.0202 µM with HCC-2998 colon; more than 5 µM in the assay on NCI-H226 lung; more than 5 µM in the assay with OVCAR-4 ovarian; more than 5 µM with HOP-62 NSCLC. The GI50 in the assay with EKVX NSCLC and in the assay on MALME-3M melanoma was more than 5 µM in each case. Also, the TGI in the assay on NCI-H522 lung, in the assay with OVCAR-5 ovarian, in the assay on HCC-2998 colon, with NCI-H226 lung, in the assay with OVCAR-4 ovarian and with HOP-62 NSCLC was more than 5 µM throughout. The TGI with EKVX NSCLC and in the assay with MALME-3M melanoma was more than 5 µM throughout.

For the molecule `COc1cc(-c2ccc(-[n+]3nc(-c4ccc([N+](=O)[O-])cc4)nn3-c3ccc([N+](=O)[O-])cc3)c(OC)c2)ccc1-[n+]1nc(-c2ccc([N+](=O)[O-])cc2)nn1-c1ccc([N+](=O)[O-])cc1`, the GI50 is 0.672 µM with NCI-H522 lung; 12.4 µM with OVCAR-5 ovarian; 9.21 µM in the assay on HCC-2998 colon; 10.1 µM in the assay on RPMI-8226 leukemia; 12.1 µM in the assay with NCI-H226 lung; 3.56 µM in the assay with OVCAR-4 ovarian. In addition, the GI50 in the assay on HOP-62 NSCLC was 1.84 µM; in the assay with MALME-3M melanoma, 1.89 µM. Further, the TGI turned out to be 7.71 µM with NCI-H522 lung; 45.5 µM in the assay on OVCAR-5 ovarian; 29.3 µM in the assay on HCC-2998 colon; 67.8 µM in the assay on RPMI-8226 leukemia; 45.7 µM in the assay on NCI-H226 lung; 55.7 µM in the assay on OVCAR-4 ovarian. The results for the TGI in the assay on HOP-62 NSCLC and in the assay with MALME-3M melanoma were 4.54 µM and 4.47 µM, respectively.

As to `Cn1cc(C(=O)/C(Cl)=C(\Cl)C(=O)O)c2ccccc21`, the TGI with OVCAR-5 ovarian, with HCC-2998 colon, in the assay on RPMI-8226 leukemia, with NCI-H226 lung, in the assay with OVCAR-4 ovarian and in the assay with HOP-62 NSCLC was more than 100 µM each time. The TGI in the assay on EKVX NSCLC and in the assay on MALME-3M melanoma was more than 100 µM in each case.

For `O=C1OC(c2ccccc2)(c2ccccc2)CC1CN1CCOCC1` (centres undefined), the TGI with NCI-H522 lung was 22.8 µM; in the assay on OVCAR-5 ovarian, 67.5 µM; in the assay with HCC-2998 colon, 31.4 µM; in the assay with OVCAR-4 ovarian, 40.9 µM; with HOP-62 NSCLC, more than 100 µM; in the assay with EKVX NSCLC, more than 100 µM. This molecule registered a TGI in the assay on MALME-3M melanoma of 26.6 µM.

Turning to `CC(=O)NC(Cc1c[nH]c2ccccc12)C(=O)O` (centres undefined), the TGI in the assay on NCI-H522 lung, in the assay with OVCAR-5 ovarian, in the assay with RPMI-8226 leukemia, in the assay with NCI-H226 lung, in the assay on OVCAR-4 ovarian and with HOP-92 NSCLC was more than 100 µM each time. For the same molecule, the TGI with HOP-62 NSCLC, in the assay with EKVX NSCLC and in the assay on MALME-3M melanoma was more than 100 µM in each case.

Consider `C[C@]12CC[C@@H]3c4ccc(OCC(=O)O)cc4CC[C@H]3[C@@H]1CCC2=O`, for which the TGI in the assay on NCI-H522 lung, in the assay with OVCAR-5 ovarian, in the assay on RPMI-8226 leukemia, in the assay on NCI-H226 lung, with OVCAR-4 ovarian and with HOP-92 NSCLC was more than 100 µM throughout. The TGI in the assay on HOP-62 NSCLC, in the assay on EKVX NSCLC and in the assay on MALME-3M melanoma was more than 100 µM throughout.

`N#Cc1c(SCc2ccccc2)nc2[nH]c(=S)[nH]c(=S)c2c1-c1ccco1`: the GI50 in the assay with NCI-H522 lung was more than 100 µM; in the assay with OVCAR-5 ovarian it was 66.4 µM; in the assay with RPMI-8226 leukemia, 2.22 µM; in the assay on NCI-H226 lung, 15.1 µM; in the assay with OVCAR-4 ovarian, more than 100 µM; with HOP-92 NSCLC, 3.45 µM. The GI50 was 58.4 µM with HOP-62 NSCLC and 17 µM in the assay on EKVX NSCLC. Besides, the TGI with NCI-H522 lung was more than 100 µM; in the assay on OVCAR-5 ovarian, more than 100 µM; with RPMI-8226 leukemia it was 13.9 µM; in the assay on NCI-H226 lung, 52.8 µM; in the assay on OVCAR-4 ovarian, more than 100 µM; in the assay on HOP-92 NSCLC, 26.2 µM. For the same molecule, the TGI in the assay with HOP-62 NSCLC and in the assay with EKVX NSCLC was more than 100 µM throughout.

For the molecule `O=C(Nc1ccc(N=Nc2ccccc2)cc1)Sc1ccccc1C(=O)O`, the TGI in the assay on NCI-H522 lung, in the assay with OVCAR-5 ovarian, in the assay with HCC-2998 colon, in the assay on RPMI-8226 leukemia, with NCI-H226 lung and in the assay with OVCAR-4 ovarian was more than 100 µM in each case. Besides, the TGI in the assay on HOP-62 NSCLC and in the assay on EKVX NSCLC was more than 100 µM each time.

`CCC12CC[C@H](C#N)N3CCc4c(n(c5ccccc45)C(=O)C1)C32` (some centres undefined): the TGI came to 38.5 µM in the assay on OVCAR-5 ovarian; 32.4 µM in the assay on HCC-2998 colon; 48.9 µM with RPMI-8226 leukemia; 31.7 µM with OVCAR-4 ovarian; 49.2 µM in the assay on HOP-62 NSCLC; 64.1 µM in the assay on EKVX NSCLC. Further, the TGI in the assay on MALME-3M melanoma is 19.3 µM.
